Assays:
[1] = molecular target: Mu-type opioid receptor (Homo sapiens) (UniProt P35372); assay: Intrinsic activity at human mu opioid receptor expressed in CHOK1 cell membranes at 0.00001 to 20 uM after 30 mins by GTP-Eu nucleotide exchange assay relative to DAMGO; format: functional; details: CHO-K1
[2] = molecular target: Delta-type opioid receptor (Homo sapiens, UniProt P41143); assay: Displacement of [3H]-diprenorphine from human delta opioid receptor expressed in cell membranes
[3] = molecular target: Kappa-type opioid receptor (Cavia porcellus, UniProt P41144); assay: Displacement of [3H]-diprenorphine from guinea pig kappa opioid receptor expressed in CHOK1 cell membranes; details: cho-k1
Chain of Kappa-type opioid receptor (P41144 whole entry): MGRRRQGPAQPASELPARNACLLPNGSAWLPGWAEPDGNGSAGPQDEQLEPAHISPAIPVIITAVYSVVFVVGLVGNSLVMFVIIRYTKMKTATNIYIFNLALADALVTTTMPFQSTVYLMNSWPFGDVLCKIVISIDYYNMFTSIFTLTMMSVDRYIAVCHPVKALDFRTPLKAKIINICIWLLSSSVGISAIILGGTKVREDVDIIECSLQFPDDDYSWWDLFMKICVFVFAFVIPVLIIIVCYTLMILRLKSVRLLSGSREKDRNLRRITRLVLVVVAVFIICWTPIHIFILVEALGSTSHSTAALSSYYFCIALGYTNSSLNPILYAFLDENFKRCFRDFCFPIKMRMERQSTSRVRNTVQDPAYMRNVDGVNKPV

Chain of Delta-type opioid receptor (P41143 whole entry): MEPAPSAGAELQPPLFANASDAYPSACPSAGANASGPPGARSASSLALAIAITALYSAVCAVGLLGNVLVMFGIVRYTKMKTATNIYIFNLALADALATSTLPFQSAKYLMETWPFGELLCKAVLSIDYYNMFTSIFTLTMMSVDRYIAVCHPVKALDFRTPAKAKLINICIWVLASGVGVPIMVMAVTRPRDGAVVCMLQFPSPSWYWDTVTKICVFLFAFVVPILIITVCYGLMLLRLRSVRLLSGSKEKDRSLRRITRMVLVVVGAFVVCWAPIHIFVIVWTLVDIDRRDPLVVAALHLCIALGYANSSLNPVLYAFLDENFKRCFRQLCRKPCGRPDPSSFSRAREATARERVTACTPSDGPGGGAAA
Chain of Mu-type opioid receptor (Homo sapiens) (P35372 whole entry): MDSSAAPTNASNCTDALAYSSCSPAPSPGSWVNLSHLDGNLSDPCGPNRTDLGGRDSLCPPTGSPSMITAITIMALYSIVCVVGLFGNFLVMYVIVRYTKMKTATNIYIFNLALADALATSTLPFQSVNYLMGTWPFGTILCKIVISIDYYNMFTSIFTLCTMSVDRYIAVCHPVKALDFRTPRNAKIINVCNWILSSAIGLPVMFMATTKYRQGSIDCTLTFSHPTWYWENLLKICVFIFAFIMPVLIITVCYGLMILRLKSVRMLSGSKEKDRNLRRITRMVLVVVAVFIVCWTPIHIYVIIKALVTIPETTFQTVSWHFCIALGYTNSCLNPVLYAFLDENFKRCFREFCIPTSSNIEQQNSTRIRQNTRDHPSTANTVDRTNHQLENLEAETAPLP

| Compound | Intrinsic activity [1] [%] | pKi [2] | pKi [3] |
| --- | --- | --- | --- |
| NC(=O)c1cccc([C@H]2C[C@H]3CC[C@@H](C2)N3CCN(CC23CC4CC(CC(O)(C4)C2)C3)C(=O)CO)c1 | < 40 | – | – |
| NC(=O)c1cccc([C@H]2C[C@H]3CC[C@@H](C2)N3CCN(CC2CCCC2)C(=O)CO)c1.O=C(O)C(F)(F)F | < 40 | 7 to 10.5 | 7 to 10.5 |
| NC(=O)c1cccc([C@H]2C[C@H]3CC[C@@H](C2)N3CCN(CCc2ccc(F)cc2)C(=O)CO)c1.O=C(O)C(F)(F)F | < 40 | 7 to 10.5 | 7 to 10.5 |
| O=C(C1CCCC1)N(CCN1[C@@H]2CC[C@H]1C[C@@H](c1cccc(O)c1)C2)Cc1ccccc1 (single isomer, unassigned) | < 40 | 7 to 10.5 | 7 to 10.5 |
| CCCCCNC(=O)N(CCN1[C@@H]2CC[C@H]1C[C@@H](c1cccc(C(N)=O)c1)C2)CC1CCCCC1 | < 40 | 7 to 10.5 | 7 to 10.5 |
| CS(=O)(=O)CC(=O)N(CCN1[C@@H]2CC[C@H]1C[C@@H](c1cccc(C(N)=O)c1)C2)CC1CCC(C(F)(F)F)CC1 (some centres not stated) | < 40 | – | – |
| CCCCCNC(=O)N(CCN1[C@@H]2CC[C@H]1C[C@@H](c1cccc(O)c1)C2)CC1CCCCC1 | < 40 | 7 to 10.5 | 7 to 10.5 |
| NC(=O)c1cccc([C@H]2C[C@H]3CC[C@@H](C2)N3CCN(CC2CCCCC2)C(=O)CCC(=O)O)c1 | < 40 | 7 to 10.5 | 7 to 10.5 |
| O=C(CO)N(CCN1[C@@H]2CC[C@H]1C[C@@H](c1cccc(O)c1)C2)CC1CCCCC1 | < 40 | 7 to 10.5 | 7 to 10.5 |
| CC(C)(C)C(=O)N(CCN1[C@@H]2CC[C@H]1C[C@@H](c1cccc(C(N)=O)c1)C2)Cc1ccccc1.O=C(O)C(F)(F)F | < 40 | 7 to 10.5 | 7 to 10.5 |
| O=C([C@@H](O)Cc1ccccc1)N(CCN1[C@@H]2CC[C@H]1C[C@@H](c1cccc(O)c1)C2)CC1CCCCC1 | < 40 | 7 to 10.5 | 7 to 10.5 |
| NC(=O)c1cccc([C@H]2C[C@H]3CC[C@@H](C2)N3CCN(CC(F)(F)c2ccccc2)C(=O)[C@@H](O)CO)c1.O=C(O)C(F)(F)F | < 40 | 7 to 10.5 | 7 to 10.5 |
| CS(=O)(=O)N(CCN1[C@@H]2CC[C@H]1C[C@@H](c1cccc(C(N)=O)c1)C2)Cc1c(F)cccc1F.O=C(O)C(F)(F)F | < 40 | 7 to 10.5 | 7 to 10.5 |
| CS(=O)(=O)CC(=O)N(CCc1ccc(O)cc1)CCN1[C@@H]2CC[C@H]1C[C@@H](c1cccc(C(N)=O)c1)C2.O=C(O)C(F)(F)F | < 40 | 7 to 10.5 | 7 to 10.5 |
| NC(=O)c1cccc([C@H]2C[C@H]3CC[C@@H](C2)N3CCN(Cc2c(F)cccc2F)C(=O)C2(O)CC2)c1.O=C(O)C(F)(F)F | < 40 | 7 to 10.5 | 7 to 10.5 |
| CC(CO)(CO)C(=O)N(CCN1[C@@H]2CC[C@H]1C[C@@H](c1cccc(C(N)=O)c1)C2)CC1CCCC1.O=C(O)C(F)(F)F | < 40 | 7 to 10.5 | 7 to 10.5 |
| CS(=O)(=O)CC(=O)N(CCN1[C@@H]2CC[C@H]1C[C@@H](c1cccc(C(N)=O)c1)C2)Cc1cccc(F)c1.O=C(O)C(F)(F)F | < 40 | 7 to 10.5 | 7 to 10.5 |
| CC(C)(C(=O)N(CCN1[C@@H]2CC[C@H]1C[C@@H](c1cccc(C(N)=O)c1)C2)CC1CCC1)S(C)(=O)=O.O=C(O)C(F)(F)F | < 40 | 7 to 10.5 | 7 to 10.5 |
| O=C(N(CCN1[C@@H]2CC[C@H]1C[C@@H](c1cccc(O)c1)C2)CC1CCCCC1)C1(O)CC1 | < 40 | – | – |
| CC(C)C[C@H](O)C(=O)N(CCN1[C@@H]2CC[C@H]1C[C@@H](c1cccc(C(N)=O)c1)C2)Cc1c(F)cccc1F.O=C(O)C(F)(F)F | < 40 | 7 to 10.5 | 7 to 10.5 |
| CC(C)CC(=O)N(Cc1ccccc1)[C@H](C)CN1[C@@H]2CC[C@H]1C[C@@H](c1cccc(O)c1)C2 | < 40 | 7 to 10.5 | 7 to 10.5 |

| Compound | Intrinsic activity [1] [%] | pKi [2] | pKi [3] |
| --- | --- | --- | --- |
| NCC(=O)N(CCN1[C@@H]2CC[C@H]1C[C@@H](c1cccc(C(N)=O)c1)C2)CC1CCCCC1 | < 40 | 7 to 10.5 | 7 to 10.5 |
| C[C@H](CN1[C@@H]2CC[C@H]1C[C@@H](c1cccc(O)c1)C2)N(Cc1ccccc1)C(=O)Cc1ccccc1 | < 40 | 7 to 10.5 | 7 to 10.5 |
| COCC(=O)N(CCN1[C@@H]2CC[C@H]1C[C@@H](c1cccc(C(N)=O)c1)C2)CC1CCCCC1.O=C(O)C(F)(F)F | < 40 | 7 to 10.5 | 7 to 10.5 |
| NC(=O)c1cccc([C@H]2C[C@H]3CC[C@@H](C2)N3CCN(CC2CCC2)C(=O)[C@@H](O)CO)c1.O=C(O)C(F)(F)F | < 40 | 7 to 10.5 | 7 to 10.5 |
| O=C(O)c1cccc([C@H]2C[C@H]3CC[C@@H](C2)N3CCN(CC2CCCCC2)C(=O)[C@@H](O)CO)c1 | < 40 | – | – |
| NC(=O)c1cccc([C@H]2C[C@H]3CC[C@@H](C2)N3CCN(Cc2ccccc2)C(=O)[C@H](O)CO)c1 | < 40 | – | – |
| NC(=O)c1cccc([C@H]2C[C@H]3CC[C@@H](C2)N3CCN(CC2CCC(F)(F)CC2)C(=O)[C@@H](O)CO)c1 | < 40 | – | – |
| O=C(O)C(O)CC(=O)N(CCN1[C@@H]2CC[C@H]1C[C@@H](c1cccc(O)c1)C2)Cc1cccc(F)c1 (some centres not stated) | < 40 | – | – |
| NC(=O)c1cccc([C@H]2C[C@H]3CC[C@@H](C2)N3CCN(C[C@H]2CC[C@H](O)CC2)C(=O)[C@@H](O)CO)c1 | < 40 | – | – |
| O=C(O)C1CCCCC1C(=O)N(CCN1[C@@H]2CC[C@H]1C[C@@H](c1cccc(O)c1)C2)CC1CCCCC1 (some centres not stated) | < 40 | – | – |
| O=C(O)CCC(=O)N(CCN1[C@@H]2CC[C@H]1C[C@@H](c1cccc(O)c1)C2)CC12CC3CC(CC(C3)C1)C2 | < 40 | – | – |
| O=C(C(O)CCc1ccccc1)N(CCN1[C@@H]2CC[C@H]1C[C@@H](c1cccc(O)c1)C2)CC1CCCCC1 (some centres not stated) | < 40 | – | – |
| O=C(CO)N(CCN1[C@@H]2CC[C@H]1C[C@@H](c1cccc(O)c1)C2)CC12CC3CC(CC(C3)C1)C2 | < 40 | – | – |
| NC(=O)c1cccc([C@H]2C[C@H]3CC[C@@H](C2)N3CCN(CC2CCC(F)CC2)C(=O)CO)c1 (some centres not stated) | < 40 | – | – |
| NC(=O)c1cccc([C@H]2C[C@H]3CC[C@@H](C2)N3CCN(C[C@H]2CC[C@@H](O)CC2)C(=O)[C@@H](O)CO)c1 | < 40 | – | – |
| CC(=O)N(CCN1[C@@H]2CC[C@H]1C[C@@H](c1cccc(O)c1)C2)CC12CC3CC(CC(C3)C1)C2 | < 40 | – | – |
| C[C@@H](O)[C@H](O)C(=O)N(CCN1[C@@H]2CC[C@H]1C[C@@H](c1cccc(C(N)=O)c1)C2)Cc1ccccc1 | < 40 | – | – |
| NC(=O)c1cccc([C@H]2C[C@H]3CC[C@@H](C2)N3CCN(CC2CCC(F)CC2)C(=O)[C@@H](O)CO)c1 (some centres not stated) | < 40 | – | – |
| COC(=O)CCC(=O)N(CCN1[C@@H]2CC[C@H]1C[C@@H](c1cccc(O)c1)C2)Cc1ccccc1 | < 40 | – | – |
| NC(=O)c1cccc([C@H]2C[C@H]3CC[C@@H](C2)N3CCN(CC2CCC(C(F)(F)F)CC2)C(=O)[C@@H](O)CO)c1 (some centres not stated) | < 40 | – | – |
| CN(C)CC(O)C(=O)N(CCN1[C@@H]2CC[C@H]1C[C@@H](c1cccc(C(N)=O)c1)C2)CC1CCCCC1 (some centres not stated) | < 40 | – | – |

| Compound | Intrinsic activity [1] [%] | pKi [2] | pKi [3] |
| --- | --- | --- | --- |
| O=C(CCC1CCCC1)N(CCN1[C@@H]2CC[C@H]1C[C@@H](c1cccc(O)c1)C2)CC1CCCCC1 | < 40 | – | – |
| CC(O)C(=O)N(CCN1[C@@H]2CC[C@H]1C[C@@H](c1cccc(C(N)=O)c1)C2)Cc1ccccc1 (some centres not stated) | < 40 | – | – |
| CS(=O)(=O)CC(=O)N(CCc1ccccc1)CCN1[C@@H]2CC[C@H]1C[C@@H](c1cccc(C(N)=O)c1)C2.O=C(O)C(F)(F)F | – | 7 to 10.5 | 7 to 10.5 |
| CN(C)S(=O)(=O)N(CCN1[C@@H]2CC[C@H]1C[C@@H](c1cccc(C(N)=O)c1)C2)Cc1ccc(CF)cc1 | < 40 | – | – |
| CC(=O)N(CCN1[C@@H]2CC[C@H]1C[C@@H](c1cccc(C(N)=O)c1)C2)CC12CC3CC(CC(C3)C1)C2 | < 40 | – | – |
| NC(=O)c1cccc([C@H]2C[C@H]3CC[C@@H](C2)N3CCN(CC23CC4CC(CC(O)(C4)C2)C3)C(=O)[C@@H](O)CO)c1 | < 40 | – | – |
| CC(C)(C)C(=O)N(CCCN1[C@@H]2CC[C@H]1C[C@@H](c1cccc(C(N)=O)c1)C2)Cc1ccccc1 | < 40 | – | – |
| C[C@H](O)C(=O)N(CCCN1[C@@H]2CC[C@H]1C[C@@H](c1cccc(C(N)=O)c1)C2)Cc1ccccc1 | < 40 | – | – |
| O=C(CO)N(CCN1[C@@H]2CC[C@H]1C[C@@H](c1cccc(O)c1)C2)Cc1ccccc1 | – | 7 to 10.5 | 7 to 10.5 |
| CC(O)C(O)C(=O)N(CCCN1[C@@H]2CC[C@H]1C[C@@H](c1cccc(C(N)=O)c1)C2)Cc1ccccc1 (some centres not stated) | < 40 | – | – |
| NC(=O)c1cccc([C@H]2C[C@H]3CC[C@@H](C2)N3CCN(CC2CCC(C(F)(F)F)CC2)C(=O)CO)c1 (some centres not stated) | < 40 | – | – |
| CCC(C)NC(=O)N(CCN1[C@@H]2CC[C@H]1C[C@@H](c1cccc(C(N)=O)c1)C2)CC1CCCCC1 (some centres not stated) | < 40 | – | – |
| NC(=O)c1cccc([C@H]2C[C@H]3CC[C@@H](C2)N3CCN(CC23CC4CC(CC(C4)C2)C3)C(=O)CCC(=O)O)c1 | < 40 | – | – |
| CC(C)(C)NCC[C@H](O)C(=O)N(CCN1[C@@H]2CC[C@H]1C[C@@H](c1cccc(C(N)=O)c1)C2)CC1CCCCC1 | < 40 | – | – |
| CCC(C)NC(=O)N(CCN1[C@@H]2CC[C@H]1C[C@@H](c1cccc(O)c1)C2)CC1CCCCC1 (some centres not stated) | < 40 | – | – |
| CC1CCC(CN(CCN2[C@@H]3CC[C@H]2C[C@@H](c2cccc(C(N)=O)c2)C3)C(=O)CS(C)(=O)=O)CC1 (some centres not stated) | < 40 | – | – |
| O=C(CO)N(CCN1[C@@H]2CC[C@H]1C[C@@H](c1cccc(O)c1)C2)Cc1ccc(Cl)cc1 | < 40 | – | – |
| CC1CCC(CN(CCN2[C@@H]3CC[C@H]2C[C@@H](c2cccc(C(N)=O)c2)C3)C(=O)[C@@H](O)CO)CC1 (some centres not stated) | < 40 | – | – |
| NC(=O)c1cccc([C@H]2C[C@H]3CC[C@@H](C2)N3CCN(CC23CC4CC(CC(C4)C2)C3)C(=O)CO)c1 | < 40 | – | – |

From ChEMBL document CHEMBL3879907, “8-azabicyclo[3.2.1]octane compounds as mu opioid receptor antagonists” (2014)
